Assay [1] has as its target T1, Factor Xa (Bos taurus, UniProt P00743). As to the kind of experiment: anti-Xa Clotting Assay. The format is biochemical. Particulars: concentration which doubles the coagulation time vs control; citrated plasma. The method, then:
(§1) The blood coagulation-inhibiting activity was determined as follows:
anti-Xa Clotting Assay: 25 μl of citrated plasma having various concentrations of test compound are mixed with 75 μl of Factor Xa (Diagnostic Reagents, Thame, Oxon, Great Britain) diluted 1:100 in 0.63% citrate buffer (pH 7.3) which contains 41 mM imidazole, 82 mM NaCl and 0.1% albumin. After warming to 37° C. for 2 minutes 200 μl of a 1:1 mixture of Factor X Deficient Plasma (Diagnostic Reagents) and Platelet Substitute (Diagnostic Reagents) are added and the mixture is incubated at 37° C. for 20 seconds. After the addition of 100 μl of prewarmed 50 mM calcium chloride solution the coagulation time is measured in a Fibrometer.
(§2) The activity of the test compound is given as the IC50, which is that concentration [μg/ml] which leads to a coagulation time which is double the control value.

Another assay addresses thrombin (Homo sapiens, UniProt P00734). As to the kind of experiment: Inhibition of Thrombin in the Chromogenic Substrate Assay. Format: biochemical. Particulars: amidolytic activity reduced by 50% vs plasma control; anti-thrombin III, S-2238. The protocol:
as §1
The buffer solution used consisted of 50 mM Tris buffer, 180 mM NaCl, 7.5 mM EDTA Na2, 1% PEG 6000 and 0.02% Tween 80, pH 8.4. The sample consisted of 50 μl of buffer, 30 μl of anti-thrombin Ill (1 U/ml), Kabi Diagnostics) and 20 μl of plasma which contained various concentrations of test compounds. 30 μl of sample solution and 20 μl of water with 180 μl of thrombin were added to the test cuvette in the automatic analyzer. […] The liberation of pNA (p-nitroaniline) was followed during 60 seconds at 405 nm in 10 second intervals in comparison to water as the blank.

Another assay concerns citrated human plasma. As to the kind of experiment: aPTT (activated partial thromboplastin time) Test. Format: biochemical. Particulars: concentration which doubles the coagulation time vs control. The method, then:
as §1
aPTT (activated partial thromboplastin time) Test (see Walenga et al., CRC Critical Reviews in Laboratory Sciences 22 (4) 361-389 (1986)): 100 μl of citrated human plasma, which contains various concentrations of test compound, is incubated at 37° C. for 8 minutes with 100 μl of Activated Thrombofax (Ortho Diagnostics, Raritan, N.J., U.S.A.). 100 μl of prewarmed 25 mM calcium chloride solution are then added and the coagulation time is measured in a Fibrometer Coagulation Timer (Becton Dickinson, Basle).
as §2

The test system of another assay is rat smooth muscle cells. As to the kind of experiment: anti-proliferative activity in cell cultures. The format is cell-based. The following applies: for Anti-proliferative activity % inhibition: 100 μg/ml test substance, 7 days, vs non-inhibited growth. The protocol: The anti-proliferative activity of the substances was determined in cell cultures as follows: rat smooth muscle cells (cultivated in DMEM with 10% FCS at 37° C. and 5% CO2) were seeded in 24 well cell culture plates with a density of 8×10^3 cells/well. After 4 hours the number of adhered cells was determined and the substances to be tested ([…]) were added. Cells to which no substance was added served as a comparison and heparin (100 μg/ml) served as a positive control. The cells were incubated for 7 days and then the cell number was determined. The antiproliferative activity of the individual substances was calculated as the % inhibition in comparison to non-inhibited growth: [formula] wherein cell number(d=O) cell number after 4 h cell number(-)=cell number to which no test
substances was added, after 7 days.
cell number(inhib)=cell number with
100 μg/ml of the test substance.

Assay [2] has as its target T1, Factor Xa. As to the kind of experiment: Inhibition of Factor Xa in the Chromogenic Substrate Assay. Format: biochemical. Particulars: amidolytic activity reduced by 50% vs plasma control; S-2222. The method, then:
as §1
Inhibition of Thrombin or Factor Xa in the Chromogenic Substrate Assay (Teien et al., Thrombosis Research 10, 399-410 (1977)): The test was performed in a Cobas-Bio centrifugal automatic spectrophotometer. The buffer solution used consisted of 50 mM Tris buffer, 180 mM NaCl, 7.5 mM EDTA Na2, 1% PEG 6000 and 0.02% Tween 80, pH 8.4. The sample consisted of 50 μl of buffer, 30 μl of anti-thrombin Ill (1 U/ml), Kabi Diagnostics) and 20 μl of plasma which contained various concentrations of test compounds. 30 μl of sample solution and 20 μl of water with 180 μl of thrombin were added to the test cuvette in the automatic analyzer. After incubation at 37° C. for 240 seconds 60 μl of S-2238 (H-D-Phe-Pip-Arg-NH.pNA, Kabi Diagnostics, Mondal, Sweden, 0.75 mM in water) and 20 μl of water were added. The liberation of pNA (p-nitroaniline) was followed during 60 seconds at 405 nm in 10 second intervals in comparison to water as the blank. The inhibitory activity is given as the IC50, which is the concentration [μg/ml] at which the amidolytic activity of thrombin is reduced by 50% in comparison to the plasma control value.
The inhibition of Factor Xa was measured in the same manner using a solution of Factor Xa (2.8 nkat/ml and 2 mM S-2222 (Bz-CO-Ile-Glu-Arg-NH.pNA, Kabi Diagnostics) in water in place of thrombin and, respectively, S-2238.

T1 sequence (P00743 234-492 limits assumed): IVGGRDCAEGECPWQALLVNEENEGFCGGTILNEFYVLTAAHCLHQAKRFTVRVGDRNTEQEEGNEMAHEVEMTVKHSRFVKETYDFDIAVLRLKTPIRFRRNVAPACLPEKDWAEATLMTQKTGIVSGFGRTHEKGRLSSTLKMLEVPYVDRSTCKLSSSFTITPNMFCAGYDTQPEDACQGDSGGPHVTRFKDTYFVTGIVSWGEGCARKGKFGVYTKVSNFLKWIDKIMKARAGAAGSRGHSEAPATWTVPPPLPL

Consider “sulphated 4-O-(β-D-maltosyl)-α,α-D-trehalose [Example 3C]”, for which the “Anti-coagulation activity IC50, Coagulation inhibition Xa” value on Factor Xa [1] amounted to 33.5 µg/mL. The “Anti-coagulation activity IC50, Amidolytic activity Thrombin” value at thrombin was more than 1000 µg/mL. Besides, in the assay on citrated human plasma, the “Anti-coagulation activity IC50, Coagulation inhibition aPTT” value amounted to 12 µg/mL. Further, in the assay on rat smooth muscle cells, the “Anti-proliferative activity % inhibition” value came out at 59%. At Factor Xa [2], the “Anti-coagulation activity IC50, Amidolytic activity F.Xa” value is more than 1000 µg/mL.
For “sulphated 4-O -(β-D-maltotriosyl)-α,α-D-trehalose [Example 4C]”, the “Anti-coagulation activity IC50, Coagulation inhibition Xa” value on Factor Xa [1] was determined as 32 µg/mL. Moreover, the “Anti-coagulation activity IC50, Amidolytic activity Thrombin” value at thrombin was more than 1000 µg/mL. In addition, the “Anti-coagulation activity IC50, Coagulation inhibition aPTT” value in the assay on citrated human plasma turned out to be 11 µg/mL. The “Anti-proliferative activity % inhibition” value in the assay with rat smooth muscle cells was 64%. Also, on Factor Xa [2], the “Anti-coagulation activity IC50, Amidolytic activity F.Xa” value is more than 1000 µg/mL.
In the case of “sulphated 4-O-(β-D-cellobiosyl)-α,α-D-trehalose [Example 5C]”, the “Anti-coagulation activity IC50, Coagulation inhibition Xa” value on Factor Xa [1] worked out at 69 µg/mL. Moreover, the “Anti-coagulation activity IC50, Amidolytic activity Thrombin” value on thrombin was more than 1000 µg/mL. Further, in the assay with citrated human plasma, the “Anti-coagulation activity IC50, Coagulation inhibition aPTT” value is 33 µg/mL. In the assay with rat smooth muscle cells, the “Anti-proliferative activity % inhibition” value stood at 39%. Also, the “Anti-coagulation activity IC50, Amidolytic activity F.Xa” value at Factor Xa [2] is more than 1000 µg/mL.
“sulphated 4-O-(α-D-maltotriosyl)-α,α-D-trehalose [Example 1G]”: the “Anti-coagulation activity IC50, Coagulation inhibition Xa” value on Factor Xa [1] came to 31 µg/mL. Besides, on thrombin, the “Anti-coagulation activity IC50, Amidolytic activity Thrombin” value was more than 1000 µg/mL. The “Anti-coagulation activity IC50, Coagulation inhibition aPTT” value with citrated human plasma amounted to 11 µg/mL. The “Anti-proliferative activity % inhibition” value in the assay with rat smooth muscle cells amounted to 57%. Further, the “Anti-coagulation activity IC50, Amidolytic activity F.Xa” value on Factor Xa [2] is 960 µg/mL.
As for Heparin [reference compound], the “Anti-coagulation activity IC50, Coagulation inhibition Xa” value at Factor Xa [1] was 0.6 µg/mL. Moreover, the “Anti-coagulation activity IC50, Amidolytic activity Thrombin” value at thrombin amounted to 1.9 µg/mL. Besides, in the assay on citrated human plasma, the “Anti-coagulation activity IC50, Coagulation inhibition aPTT” value was determined as 1.2 µg/mL. Besides, the anti-proliferative activity result with rat smooth muscle cells (result in words) is reported as “anti-proliferatively active”. Further, the “Anti-coagulation activity IC50, Amidolytic activity F.Xa” value at Factor Xa [2] amounted to 2.7 µg/mL.
As to “sulphated 4,4'-bis-O-(β-D-maltosyi)-α,α-D-trehalose [Example 6D]”, the “Anti-coagulation activity IC50, Coagulation inhibition Xa” value on Factor Xa [1] stood at 28.5 µg/mL. Also, the “Anti-coagulation activity IC50, Amidolytic activity Thrombin” value on thrombin is more than 1000 µg/mL. The “Anti-coagulation activity IC50, Coagulation inhibition aPTT” value in the assay on citrated human plasma was 14.5 µg/mL. Further, in the assay on rat smooth muscle cells, the “Anti-proliferative activity % inhibition” value is reported as 67%. In addition, the “Anti-coagulation activity IC50, Amidolytic activity F.Xa” value at Factor Xa [2] amounted to 900 µg/mL.
For “sulphated 4-O-(β-D-glucopyranosyl) -α,α-D-trehalose [Example 2C]” the same measures were 115 µg/mL, more than 1000 µg/mL, 40 µg/mL, 38% and more than 1000 µg/mL.
As to “sulphated 4,4'-bis -O-(β-D-glucopyranosyl)-α,α-D-trehalose [Example 7C]”, the “Anti-coagulation activity IC50, Coagulation inhibition Xa” value at Factor Xa [1] stood at 34 µg/mL. Further, on thrombin, the “Anti-coagulation activity IC50, Amidolytic activity Thrombin” value was more than 1000 µg/mL. In addition, in the assay with citrated human plasma, the “Anti-coagulation activity IC50, Coagulation inhibition aPTT” value stood at 13.5 µg/mL. Besides, in the assay with rat smooth muscle cells, the “Anti-proliferative activity % inhibition” value was determined as 49%. Further, the “Anti-coagulation activity IC50, Amidolytic activity F.Xa” value at Factor Xa [2] was more than 1000 µg/mL.

Source of the values: US5298616A, “Sulfated O-polysaccharide-trehaloses” (Hoffmann-La Roche Inc., priority 1990, dated 1994).
